Reference: patent US20210070748A1, “INHIBITORS OF BRUTONS TYROSINE KINASE” (Pharmacyclics LLC, priority 2015, published 2021)

How the values were obtained:
[1] = target: T1, JAK3 (Homo sapiens, UniProt P52333); assay: Inhibition of a panel of kinases, in vitro HotSpot kinase assay: JAK3; assay type: biochemical; conditions: D-compounds panel data; 1 μM ATP; read-out: IC50 JAK3
T1 sequence (P52333 1-1124): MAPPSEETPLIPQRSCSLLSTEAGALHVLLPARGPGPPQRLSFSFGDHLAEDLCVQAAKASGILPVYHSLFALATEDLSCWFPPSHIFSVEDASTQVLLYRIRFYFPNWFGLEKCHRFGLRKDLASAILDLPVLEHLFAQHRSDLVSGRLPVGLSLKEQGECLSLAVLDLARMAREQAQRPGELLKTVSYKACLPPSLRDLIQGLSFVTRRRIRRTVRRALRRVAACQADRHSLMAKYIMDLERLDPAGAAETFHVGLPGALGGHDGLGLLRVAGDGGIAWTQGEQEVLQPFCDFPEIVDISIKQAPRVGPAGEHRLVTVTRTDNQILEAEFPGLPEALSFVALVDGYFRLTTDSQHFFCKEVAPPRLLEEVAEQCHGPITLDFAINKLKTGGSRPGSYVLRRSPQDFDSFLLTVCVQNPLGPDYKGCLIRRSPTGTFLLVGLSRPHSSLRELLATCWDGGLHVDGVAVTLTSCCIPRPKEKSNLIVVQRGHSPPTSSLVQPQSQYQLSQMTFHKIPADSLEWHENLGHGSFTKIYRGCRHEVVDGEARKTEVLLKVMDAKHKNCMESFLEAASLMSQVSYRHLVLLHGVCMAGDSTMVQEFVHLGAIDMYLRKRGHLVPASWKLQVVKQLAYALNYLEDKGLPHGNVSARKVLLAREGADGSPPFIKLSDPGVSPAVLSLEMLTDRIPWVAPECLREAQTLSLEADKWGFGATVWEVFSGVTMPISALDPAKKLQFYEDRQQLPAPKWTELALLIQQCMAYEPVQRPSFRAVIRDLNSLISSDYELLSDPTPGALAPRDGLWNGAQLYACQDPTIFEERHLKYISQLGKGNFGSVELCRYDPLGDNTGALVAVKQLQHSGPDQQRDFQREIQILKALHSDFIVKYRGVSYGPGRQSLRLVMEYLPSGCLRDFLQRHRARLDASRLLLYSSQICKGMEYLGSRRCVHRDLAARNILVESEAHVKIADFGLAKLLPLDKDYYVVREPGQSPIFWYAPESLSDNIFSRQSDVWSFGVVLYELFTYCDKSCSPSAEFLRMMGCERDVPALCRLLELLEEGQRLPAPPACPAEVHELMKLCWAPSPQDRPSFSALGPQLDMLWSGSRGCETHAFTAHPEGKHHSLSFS

[2] = target: SRC (Homo sapiens, UniProt P12931); assay: Inhibition of a panel of kinases, in vitro HotSpot kinase assay: SRC; assay type: biochemical; conditions: D-compounds panel data; 1 μM ATP
Procedure: The degree of inhibition of a panel of kinases is determined using the in vitro HotSpot kinase assay (purified enzymes, ^33P-ATP, an appropriate substrate and 1 μM ATP).

Sequence of SRC (P12931 whole entry): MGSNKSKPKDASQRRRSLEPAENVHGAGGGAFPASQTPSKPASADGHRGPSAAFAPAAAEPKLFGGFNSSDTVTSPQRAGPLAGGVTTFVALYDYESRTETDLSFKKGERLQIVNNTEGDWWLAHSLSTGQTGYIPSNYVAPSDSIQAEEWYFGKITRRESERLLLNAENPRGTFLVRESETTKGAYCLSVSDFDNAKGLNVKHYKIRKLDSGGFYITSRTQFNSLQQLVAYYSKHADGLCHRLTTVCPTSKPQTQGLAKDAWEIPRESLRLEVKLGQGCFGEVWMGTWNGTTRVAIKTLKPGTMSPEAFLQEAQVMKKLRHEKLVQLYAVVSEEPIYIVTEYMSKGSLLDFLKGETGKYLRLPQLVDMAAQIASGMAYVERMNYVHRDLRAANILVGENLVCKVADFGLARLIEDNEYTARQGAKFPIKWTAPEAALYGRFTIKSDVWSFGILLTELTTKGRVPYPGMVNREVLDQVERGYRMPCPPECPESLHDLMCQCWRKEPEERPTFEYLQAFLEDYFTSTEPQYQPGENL

IC50 [1] [nM] | IC50 [2] [nM] | SMILES
1000 to 10000 | 100 to 1000 | Cc1ncc(Nc2nc(N3CCC[C@@H](NC(=O)c4ccc(C5CC5)cc4)[C@H]3C)cnc2C(N)=O)s1 [Example D-210, 5-[(2R,3R)-3-(4-cyclopropylbenzamido)-2-methylpiperidin-1-yl]-3-[(2-methyl-1,3-thiazol-5-yl)amino]pyrazine-2-carboxamide]
100 to 1000 | 10 to 100 | C[C@@H]1[C@H](NC(=O)N(C)C)CCCN1c1cnc(C(N)=O)c(Nc2ccc(N3CCN(C4CCCC4)CC3)cc2)n1 [Example D-182, 3-{[4-(4-cyclopentylpiperazin-1-yl)phenyl]amino}-5-[(2R,3R)-3-[(dimethylcarbamoyl)amino]-2-methylpiperidin-1-yl]pyrazine-2-carboxamide]
100 to 1000 | 10 to 100 | C[C@@H]1[C@H](NC(=O)c2ccc3c(cnn3C)c2)CCCN1c1cnc(C(N)=O)c(Nc2ccc(N3CCN(C)CC3)cc2)n1 [Example D-234, N-[(2R,3R)-1-(5-carbamoyl-6-{[4-(4-methylpiperazin-1-yl)phenyl]amino}pyrazin-2-yl)-2-methylpiperidin-3-yl]-1-methyl-1H-indazole-5-carboxamide]
> 10000 | 1000 to 10000 | CN1CCN(c2ccc(Nc3cc(N4CCC[C@@H](n5ccc6cc(C7CC7)ccc6c5=O)C4)cnc3C(N)=O)cc2)CC1 [Example D-178, 5-[(3R)-3-(6-cyclopropyl-1-oxo-1,2-dihydroisoquinolin-2-yl)piperidin-1-yl]-3-{[4-(4-methylpiperazin-1-yl)phenyl]amino}pyridine-2-carboxamide]
100 to 1000 | 10 to 100 | Cc1nc2cc(C(=O)N[C@@H]3CCCN(c4cnc(C(N)=O)c(Nc5cnn(C)c5)n4)[C@@H]3C)ccc2o1 [Example D-238, N-[(2R,3R)-1-{5-carbamoyl-6-[(1-methyl-1H-pyrazol-4-yl)amino]pyrazin-2-yl}-2-methylpiperidin-3-yl]-2-methyl-1,3-benzoxazole-5-carboxamide]
1000 to 10000 | 100 to 1000 | CC(C)c1ccc(C(=O)N[C@@H]2CCCN(c3cnc(C(N)=O)c(Nc4cnn(C)c4)n3)[C@@H]2C)cc1 [Example D-197, 3-[(1-methyl-1H-pyrazol-4-yl)amino]-5-[(2R,3R)-2-methyl-3-[4-(propan-2-yl)benzamido]piperidin-1-yl]pyrazine-2-carboxamide]
1000 to 10000 | 100 to 1000 | Cc1cc(Nc2cc(N3CCC[C@@H](NC(=O)N(C)C)[C@H]3C)cnc2C(N)=O)sn1 [Example D-175, 5-[(2R,3R)-3-[(dimethylcarbamoyl)amino]-2-methylpiperidin-1-yl]-3-[(3-methyl-1,2-thiazol-5-yl)amino]pyridine-2-carboxamide]
1000 to 10000 | 10 to 100 | Cn1cc(Nc2nc(N3CCC[C@@H](n4ccc5cc(C6CC6)ccc5c4=O)C3)nnc2C(N)=O)cn1 [Example D-206, 3-[(3R)-3-(6-cyclopropyl-1-oxo-1,2-dihydroisoquinolin-2-yl)piperidin-1-yl]-5-[(1-methyl-1H-pyrazol-4-yl)amino]-1,2,4-triazine-6-carboxamide]
100 to 1000 | 10 to 100 | C[C@@H]1[C@H](NC(=O)c2cnc(C(C)(C)C)s2)CCCN1c1cnc(C(N)=O)c(Nc2cnn(C)c2)n1 [Example D-239, 5-[(2R,3R)-3-(2-tert-butyl-1,3-thiazole-5-amido)-2-methylpiperidin-1-yl]-3-[(1-methyl-1H-pyrazol-4-yl)amino]pyrazine-2-carboxamide]
1000 to 10000 | 100 to 1000 | Cn1cc(Nc2nc(N3CC(NC(=O)c4ccc(C5CC5)cc4)CC(F)(F)C3)cnc2C(N)=O)cn1 (stereo in doubt) [Example D-190, 5-[(5S)-5-(4-cyclopropylbenzamido)-3,3-difluoropiperidin-1-yl]-3-[(1-methyl-1H-pyrazol-4-yl)amino]pyrazine-2-carboxamide]
1000 to 10000 | 10 to 100 | Cc1cc(Nc2nc(N3CCC[C@@H](NC(=O)N4Cc5ccccc5C4=O)C3)cnc2C(N)=O)sn1 [Example D-15, N-[(3R)-1-{5-carbamoyl-6-[(3-methyl-1,2-thiazol-5-yl)amino]pyrazin-2-yl}piperidin-3-yl]-1-oxo-2,3-dihydro-1H-isoindole-2-carboxamide]
100 to 1000 | 100 to 1000 | Cc1cc(Nc2nc(N3CCC[C@@H](c4ncc(-c5ccccc5)[nH]4)C3)cnc2C(N)=O)sn1 [Example D-171, 3-[(3-methyl-1,2-thiazol-5-yl)amino]-5-[(3R)-3-(5-phenyl-1H-imidazol-2-yl)piperidin-1-yl]pyrazine-2-carboxamide]
1000 to 10000 | 1000 to 10000 | Cn1cc(Nc2nc(N3CCC(F)(F)[C@@H](NC(=O)c4ccc(C5CC5)cc4)C3)cnc2C(N)=O)cn1 [Example D-193, 5-[(3S)-3-(4-cyclopropylbenzamido)-4,4-difluoropiperidin-1-yl]-3-[(1-methylpyrazol-4-yl)amino]pyrazine-2-carboxamide]
100 to 1000 | ≤ 10 | C[C@@H]1[C@H](NC(=O)c2ccc3scnc3c2)CCCN1c1cnc(C(N)=O)c(Nc2ccc(N3CCN(C)CC3)cc2)n1 [Example D-226, N-[(2R,3R)-1-(5-carbamoyl-6-{[4-(4-methylpiperazin-1-yl)phenyl]amino}pyrazin-2-yl)-2-methylpiperidin-3-yl]-1,3-benzothiazole-5-carboxamide]
100 to 1000 | 10 to 100 | C[C@@H]1[C@H](NC(=O)c2ccc(N(C)C)cc2)CCCN1c1cnc(C(N)=O)c(Nc2ccc(N3CCN(C)CC3)cc2)n1 [Example D-196, 5-[(2R,3R)-3-[4-(dimethylamino)benzamido]-2-methylpiperidin-1-yl]-3-{[4-(4-methylpiperazin-1-yl)phenyl]amino}pyrazine-2-carboxamide]
1000 to 10000 | 100 to 1000 | C[C@@H]1[C@H](NC(=O)c2ccc(C3CC3)cc2Cl)CCCN1c1cnc(C(N)=O)c(Nc2ccc(N3CCN(C)CC3)cc2)n1 [Example D-16, 5-[(2R,3R)-3-(2-chloro-4-cyclopropylbenzamido)-2-methylpiperidin-1-yl]-3-{[4-(4-methylpiperazin-1-yl)phenyl]amino}pyrazine-2-carboxamide]
1000 to 10000 | 10 to 100 | Cc1ccc(C(=O)N[C@@H]2CCCN(c3cnc(C(N)=O)c(Nc4cnn(C)c4)n3)[C@@H]2C)cc1 [Example D-232, 3-[(1-methyl-1H-pyrazol-4-yl)amino]-5-[(2R,3R)-2-methyl-3-(4-methylbenzamido)piperidin-1-yl]pyrazine-2-carboxamide]
100 to 1000 | 10 to 100 | Cn1cc(Nc2nc(N3CCC[C@@H](n4ccc5cc(C6CC6)ncc5c4=O)C3)cnc2C(N)=O)cn1 [Example D-225, 5-[(3R)-3-(6-cyclopropyl-1-oxo-1,2-dihydro-2,7-naphthyridin-2-yl)piperidin-1-yl]-3-[(1-methyl-1H-pyrazol-4-yl)amino]pyrazine-2-carboxamide]
1000 to 10000 | 10 to 100 | C[C@@H]1[C@H](NC(=O)c2ccc(SC(F)(F)F)cc2)CCCN1c1cnc(C(N)=O)c(Nc2cnn(C)c2)n1 [Example D-241, 3-[(1-methyl-1H-pyrazol-4-yl)amino]-5-[(2R,3R)-2-methyl-3-{4-[(trifluoromethyl)sulfanyl]benzamido}piperidin-1-yl]pyrazine-2-carboxamide]
1000 to 10000 | 10 to 100 | C[C@@H]1[C@H](NC(=O)c2ccc(OC3CC3)cc2)CCCN1c1cnc(C(N)=O)c(Nc2cnn(C)c2)n1 [Example D-219, 5-[(2R,3R)-3-(4-cyclopropoxybenzamido)-2-methylpiperidin-1-yl]-3-[(1-methyl-1H-pyrazol-4-yl)amino]pyrazine-2-carboxamide]
1000 to 10000 | 10 to 100 | C[C@@H]1[C@H](NC(=O)c2ccc(C(C)(C)C)cn2)CCCN1c1cnc(C(N)=O)c(Nc2cnn(C)c2)n1 [Example D-208, 5-[(2R,3R)-3-(5-tert-butylpyridine-2-amido)-2-methylpiperidin-1-yl]-3-[(1-methyl-1H-pyrazol-4-yl)amino]pyrazine-2-carboxamide]

SMILES | IC50 [1] [nM] | IC50 [2] [nM]
Cn1cc(Nc2nc(N3C4CCC(NC(=O)c5ccc(C6CC6)cc5)C3CC4)cnc2C(N)=O)cn1 (single isomer, unassigned) [Example D-202, 5-[2-(4-cyclopropylbenzamido)-8-azabicyclo[3.2. I]octan-8-yl]-3-[(1-methyl-1H-pyrazol-4-yl)amino]pyrazine-2-carboxamide] | > 10000 | 100 to 1000
